Laboratory results from patent US5166066A (priority 1991, dated 1992).

How the values were obtained:
[1] = target: T1, GABAA receptor-Cl- channel complex composed of rat α1, β2, γ2 subunits (Rattus norvegicus, UniProt P18508+P62813+P63138); assay: whole-cell patch clamp of GABA-mediated Cl- currents in transfected HEK 293 cells; type: cell-based; conditions: cell line 2C-1C, HEK 293, holding potential -60 mV
T1 construct: expressed in transfected cells
From the text: GABAA receptors are gated channels which, upon binding to BAGA, allow chlorine ions to pass into the cell. In the presence of benzodiazepines. The GABAA receptor will allow GABA to open the channel and let more chlorine ion into the cell if the benzodiazepine is an agonist or less chlorine ions into the cell if the benzodiazepine is an inverse agonist. The amount of chlorine ions that pass through the GABAA receptor can be directly measured using the patch clamp assay. This assay measures the charge flow into and out of an electrode sealed on the surface of a cell. The flow of chlorine ions entering the cell is measured as a function of the current that leaves the cell to maintain electrical equilibrium within the cell as the gate opens. […] The range of sensitivity of the whole cell patch clamp assay is about 1000 pA and allows for the distinguishing of currents of between 2 and 5 pA.
These tests were carried out by patch-clamp electrophysiology of whole cells. The whole-cell configuration of patch clamp technique was used to record the GABA-mediated Cl-currents in human embryonic kidney cells transfected with GABAA receptor subunits. Patch pipettes were made of borosilicate glass with a resistance of 0.5 to 2 megohms. The cell was bathed in the buffer medium containing (mM) NaCl 135, KCl 5, MgCl2 1, CaCl2 1.8 and Hepes 5, pH 7.2. […]

[2] = tested on: recombinant receptors composed of α6 -, β2 - and β2-subunits; conditions: transiently expressed in cultured mammalian cells; cited from earlier work
[3] = tested on: α1 - and β1 -subunits of the bovine brain GABAA receptor; conditions: CHO cells, dexamethasone-inducible promoter; cited from earlier work

T1 sequence (P62813 28-455): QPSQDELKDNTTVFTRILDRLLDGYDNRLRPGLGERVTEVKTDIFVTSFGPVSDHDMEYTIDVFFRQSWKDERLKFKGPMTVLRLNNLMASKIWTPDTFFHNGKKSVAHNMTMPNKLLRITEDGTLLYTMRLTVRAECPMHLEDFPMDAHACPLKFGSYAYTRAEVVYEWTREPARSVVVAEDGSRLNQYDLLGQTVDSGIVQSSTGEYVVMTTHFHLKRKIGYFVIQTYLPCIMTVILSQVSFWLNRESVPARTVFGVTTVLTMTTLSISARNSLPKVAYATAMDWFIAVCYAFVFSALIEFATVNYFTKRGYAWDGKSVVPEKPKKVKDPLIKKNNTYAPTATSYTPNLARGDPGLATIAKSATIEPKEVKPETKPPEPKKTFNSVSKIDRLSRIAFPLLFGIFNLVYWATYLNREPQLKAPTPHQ
T1 sequence (P63138 26-474): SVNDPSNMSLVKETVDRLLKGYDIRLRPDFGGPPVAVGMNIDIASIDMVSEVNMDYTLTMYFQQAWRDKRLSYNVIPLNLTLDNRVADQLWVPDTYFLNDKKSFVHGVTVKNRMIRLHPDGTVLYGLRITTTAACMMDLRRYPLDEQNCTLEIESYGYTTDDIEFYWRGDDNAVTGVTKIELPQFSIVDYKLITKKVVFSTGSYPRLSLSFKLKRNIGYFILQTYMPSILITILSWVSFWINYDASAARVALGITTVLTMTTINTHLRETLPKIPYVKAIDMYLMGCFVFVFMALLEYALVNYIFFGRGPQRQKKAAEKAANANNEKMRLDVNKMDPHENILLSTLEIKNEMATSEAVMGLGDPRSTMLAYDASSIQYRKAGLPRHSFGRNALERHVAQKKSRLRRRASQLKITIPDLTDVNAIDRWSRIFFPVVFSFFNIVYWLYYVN
T1 sequence (P18508 39-466): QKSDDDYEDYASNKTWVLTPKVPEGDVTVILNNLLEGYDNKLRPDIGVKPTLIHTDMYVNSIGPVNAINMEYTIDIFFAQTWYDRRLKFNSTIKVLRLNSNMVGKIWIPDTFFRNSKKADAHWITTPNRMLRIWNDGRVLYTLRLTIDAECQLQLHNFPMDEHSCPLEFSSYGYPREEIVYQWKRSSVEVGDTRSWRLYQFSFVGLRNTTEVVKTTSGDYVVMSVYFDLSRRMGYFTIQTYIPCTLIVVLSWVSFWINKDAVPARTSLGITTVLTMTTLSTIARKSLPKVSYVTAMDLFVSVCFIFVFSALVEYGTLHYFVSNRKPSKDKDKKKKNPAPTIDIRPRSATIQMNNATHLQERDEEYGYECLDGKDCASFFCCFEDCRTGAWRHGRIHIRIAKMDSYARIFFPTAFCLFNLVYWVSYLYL

Compound | binding affinity to recombinant receptors [2] | effect on current response of α1β1 GABAA receptors [3] | other results
NCCCC(=O)O [GABA, γ-Aminobutyric acid] |  |  | response of cells to drug (Cl- current) [1]: responsive
CCOC(=O)c1ncn2c1CN(C)C(=O)c1cc(F)ccc1-2 [Ro15-1788] | high affinity |  | 
CCOC(=O)c1ncn2c1CN(C)C(=O)c1cc(N=[N+]=[N-])ccc1-2 [Ro15-4513] | high affinity |  | 
CN1CCc2cc3c(cc2[C@H]1[C@@H]1OC(=O)c2c1ccc1c2OCO1)OCO3 [bicuculline] |  | reversibly blocked | 
NCc1cc(=O)[nH]o1 [muscimol] | high affinity |  | 
picrotoxin |  | reversibly blocked | 
